Literature values, collected in patent publication US6552014B2, “Methods of inhibiting platelet activation with selective serotonin reuptake inhibitors” (HeartDrug Research, L.L.C., priority 1999, dated 2003).
Where a name gives a salt, the structure may show the parent alone.

Legend:
Conditions in all cases: cited from earlier work
[1] = tested on: serotonin 5-HT2 receptor
[2] = tested on: central 2 alpha-adrenergic autoreceptors, and heteroreceptors
[3] = tested on: serotonin 5-HT3 receptors

## CN1CCN2c3ncccc3Cc3ccccc3C2C1 (stereo not shown) [Mirtazapine]
[1]
  antagonism of serotonin 5-HT2 receptor, in words: antagonist
[2]
  antagonism of central 2 alpha-adrenergic autoreceptors and heteroreceptors, in words: potent antagonist
[3]
  antagonism of serotonin 5-HT3 receptors, in words: antagonist

## CCc1nn(CCCN2CCN(c3cccc(Cl)c3)CC2)c(=O)n1CCOc1ccccc1 [Nefazodone, 2-[3-[4-(3-chlorophenyl)-1-piperazinyl]propyl]-5-ether-2,4-dihydro-4-(2-phenoxyethyl)-3H-1,2,4-triazol-3-one monohydrochloride]
[1]
  antagonism of serotonin 5-HT2 receptor, in words: potent serotonin 5-HT2 receptor antagonist
